Test results taken from ChEMBL document CHEMBL1201862, “PubChem BioAssay data set” (2004).
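Method: 48-hour compound exposure of cells in 96-well plates, five concentrations, linear interpolation of endpoints. Here, GI50 denotes the concentration required for 50% inhibition of growth.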 Activity calls are given as the source filed them. No stated cut-off is given here; in the data, active = GI50 up to about 1.1 µM and inactive = higher.

Columns and labels:
Test in all cases: DTP human tumour cell line panel, 48 h
HCT-116 = system: HCT-116
HOP-62 = system: HOP-62
MOLT-4 = system: MOLT-4
UACC-257 = system: UACC-257
KM-20L2 = system: KM-20L2
SNB-78 = system: SNB-78
XF498 = system: XF498
SF-295 = system: SF-295
DLD-1 = system: DLD-1
HT-29 = system: HT-29
M19-MEL = system: M19-MEL
TK-10 = system: TK-10
COLO 205 = system: COLO 205
CAKI-1 = system: CAKI-1

Measured: GI50

C/C(=N/NC(N)=S)c1ccc2ccccc2c1
inactive: HCT-116 23.8 µM | HOP-62 46.6 µM | MOLT-4 21.9 µM | UACC-257 41.9 µM | KM-20L2 23.7 µM | SNB-78 45.5 µM | XF498 82.2 µM | SF-295 29.4 µM | DLD-1 21.2 µM | HT-29 19.7 µM | M19-MEL 9.79 µM | TK-10 74.6 µM | COLO 205 21.4 µM

CCOc1ccc(NC(=O)C(=O)CC(=O)c2sc(NNC(C)=O)nc2C)cc1
inactive: HCT-116 > 100 µM | HOP-62 > 100 µM | MOLT-4 > 100 µM | UACC-257 > 100 µM | KM-20L2 > 100 µM | SNB-78 > 100 µM | XF498 > 100 µM | SF-295 > 100 µM | DLD-1 > 100 µM | HT-29 > 100 µM | M19-MEL > 100 µM | CAKI-1 > 100 µM | TK-10 > 100 µM | COLO 205 > 100 µM

C=CCCCCCCCCC(=O)O [UNDECYLENIC ACID]
inactive: HCT-116 110 µM | HOP-62 105 µM | MOLT-4 110 µM | UACC-257 179 µM | KM-20L2 114 µM | SNB-78 106 µM | XF498 17.1 µM | SF-295 109 µM | DLD-1 76.2 µM | HT-29 118 µM | M19-MEL 149 µM | CAKI-1 106 µM | COLO 205 41.3 µM

C=C(C)C(=O)OC1CCC2(C)C(CCC3C2CCC2(C)C(c4ccc(=O)oc4)CC4OC432)C1 (stereo not given)
inactive: HCT-116 2.75 µM | HOP-62 3.31 µM | MOLT-4 2.41 µM | UACC-257 2.96 µM | KM-20L2 6.92 µM | SNB-78 5.47 µM | XF498 5.15 µM | SF-295 5.07 µM | DLD-1 2.18 µM | HT-29 7.94 µM | M19-MEL 3.91 µM | CAKI-1 4.07 µM | COLO 205 8.18 µM

CC(=O)OCc1nnn2c1CCC2
inactive: HCT-116 > 100 µM | HOP-62 > 100 µM | MOLT-4 > 100 µM | UACC-257 > 100 µM | KM-20L2 > 100 µM | SNB-78 > 100 µM | XF498 > 100 µM | SF-295 > 100 µM | DLD-1 > 100 µM | HT-29 > 100 µM | M19-MEL > 100 µM | TK-10 > 100 µM
